“And” between values parts separate entries of the source, which are not always exact repeats. Equal entries are not always repeated.
How the values were obtained:
[1] = biological target: T1, FITC-labeled CFTRpS753pS768 peptide (no 14-3-3) (Homo sapiens, UniProt P13569); test: Dose-response FP control assay in the absence of 14-3-3; assay type: binding; details: replicates
T1 construct: made in house; host or cells: synthetic peptide
Procedure: (§1) The 14-3-3β concentration used for the FP screening assay was 10 μM (dashed line). c HTS FP assay of the Cyclenium library. The samples contain 100 nM of FITC-CFTR_pS753pS768 peptide, 10 μM 14-3-3β, and 50 μM compound. FC-A (100 µM) was added as a positive control and DMSO as the negative control. Hit compounds are defined as a polarization increase which is higher than 20% of the response of FC-A. Red squares are compounds that appeared positive in the negative control without 14-3-3. […] Background polarization was subtracted from all values, n = 3 technical replicates. Compounds selected for further analysis are indicated with an asterisk. e Polarization in the absence of 14-3-3. […] Source data are provided as a Source Data file.
(§2) The FITC-labeled peptides were dissolved in FP buffer (10 mM HEPES pH 7.4, 150 mM NaCl, 0.1% Tween20, 1 mg/mL BSA) to a final concentration of 100 nM or 10 nM. For the dose-response assays, a 14-3-3β concentration of 10 μM was used while titrating the compounds in a two-times dilution series and, for the other assays, a dilution series of 14-3-3β was made with constant concentration of compound. The dilution series were made in 384 Corning Black Round Bottom well plates and their polarization was measured with a Tecan Infinite F500 plate reader (ex. = 485 nm, em. = 535 nm). The method of fitting of the curves was: “log(agonist) vs. response – Variable slope (four parameters)” from GraphPad Prism. The equation is Y = Bottom + (Top-Bottom)/(1 + 10^((LogEC50-X)*HillSlope)).

[2] = biological target: T2, 14-3-3β/CFTRpS753pS768 complex (Homo sapiens, UniProt P13569+P31946); test: Dose-response fluorescence polarization (FP) assay, compound titration; assay type: binding; details: 14-3-3 10 μM, peptide 100 nM, replicates
T2 construct: His6 (cleaved yes); made in house; peptide synthetic
T2 sequence (P31946 whole entry): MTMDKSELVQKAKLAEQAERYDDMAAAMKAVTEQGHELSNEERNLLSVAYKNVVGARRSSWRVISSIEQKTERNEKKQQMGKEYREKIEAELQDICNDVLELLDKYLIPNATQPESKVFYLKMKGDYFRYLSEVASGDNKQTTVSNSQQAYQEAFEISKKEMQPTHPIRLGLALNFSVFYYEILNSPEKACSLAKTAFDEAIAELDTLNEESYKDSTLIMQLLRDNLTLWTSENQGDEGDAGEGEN
T2 sequence (P13569 747-774 limits assumed): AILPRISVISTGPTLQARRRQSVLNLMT
Procedure: as §1, with “file. […]” for “file.”
as §2

**Q.** What does the source list for `NCCCC1NCc2ccccc2Sc2ccccc2CNC(=O)C(Cc2c[nH]c3ccccc23)NC(=O)C(Cc2ccccc2)NC1=O` (stereo not drawn) [CY000970]?
**A.** Polarization in the absence of 14-3-3, background subtracted ([1]; compound 7.8125e-7 M): 1.267 and 1.067 and 0.9667; Polarization in the absence of 14-3-3, background subtracted ([1]; compound 1.5625e-6 M): 0.5667 and 0.1667 and -0.03333; Polarization in the absence of 14-3-3, background subtracted ([1]; compound 3.125e-6 M): 1.367 and 2.667 and 1.467; Polarization in the absence of 14-3-3, background subtracted ([1]; compound 6.25e-6 M): 1.367 and 2.167 and 2.967; Polarization in the absence of 14-3-3, background subtracted ([1]; compound 1.25e-5 M): 6.867 (2×) and 8.667; Polarization in the absence of 14-3-3, background subtracted ([1]; compound 2.5e-5 M): 12.7667 and 12.6667 and 13.5667; Polarization in the absence of 14-3-3, background subtracted ([1]; compound 5e-5 M): 29.6667 and 26.2667 and 32.2667; Polarization in the absence of 14-3-3, background subtracted ([1]; compound 0.0001 M): 49.4667 and 44.0667 and 55.9667; Polarization, background subtracted ([2]; compound 7.8125e-7 M): 3.967 and 7.467 and 1.967; Polarization, background subtracted ([2]; compound 1.5625e-6 M): 3.067 and 3.467 and 2.467; Polarization, background subtracted ([2]; compound 3.125e-6 M): 6.467 and 6.067 and 3.767; Polarization, background subtracted ([2]; compound 6.25e-6 M): 9.367 and 10.5667 and 10.2667; Polarization, background subtracted ([2]; compound 1.25e-5 M): 21.1667 and 31.0667 and 29.9667; Polarization, background subtracted ([2]; compound 2.5e-5 M): 47.8667 and 51.0667 and 48.4667; Polarization, background subtracted ([2]; compound 5e-5 M): 75.6667 and 90.6667 and 83.6667; Polarization, background subtracted ([2]; compound 0.0001 M): 125.667 and 143.267 and 127.367

**Q.** For `NCCCC1NC(=O)C(Cc2ccc(-c3ccccc3)cc2)NCc2ccccc2Sc2ccccc2CNC1=O` (stereo not drawn) [CY001110], which “Polarization in the absence of 14-3-3, background subtracted” value (shortened to “Polarization in the absence”) ([1]; compound 7.8125e-7 M) is on record?
**A.** The value was 0.06667 and 0.2667 and -0.03333.

**Q.** What about the “Polarization in the absence” value ([1]; compound 1.5625e-6 M) of the same compound?
**A.** The value was -0.3333 and -0.6333 (2×).

**Q.** And the “Polarization in the absence” value ([1]; compound 3.125e-6 M)?
**A.** The value was -0.6333 and 0.1667 and -0.7333.

**Q.** And the “Polarization in the absence” value ([1]; compound 6.25e-6 M)?
**A.** The value was -1.333 (2×) and -0.9333.

**Q.** What about the “Polarization in the absence” value ([1]; compound 1.25e-5 M) of the same compound?
**A.** Its value is 0.06667 and -0.2333 and 0.1667.

**Q.** What about the “Polarization in the absence” value ([1]; compound 2.5e-5 M) of the same compound?
**A.** The value was -0.8333 and -1.033 and -0.2333.

**Q.** What about the “Polarization in the absence” value ([1]; compound 5e-5 M) of the same compound?
**A.** Its value is -0.3333 and 0.2667 (2×).

**Q.** What about the “Polarization in the absence” value ([1]; compound 0.0001 M) of the same compound?
**A.** The value was 0.2667 and 1.467 and 3.067.

**Q.** And the “Polarization, background subtracted” value ([2]; compound 7.8125e-7 M)?
**A.** The value was -1.033 and -2.233 and -1.933.

**Q.** And the “Polarization, background subtracted” value ([2]; compound 1.5625e-6 M)?
**A.** Its value is -4.033 and -5.333 and -2.333.

**Q.** What about the “Polarization, background subtracted” value ([2]; compound 3.125e-6 M) of the same compound?
**A.** Its value is -5.033 (2×) and -4.933.

**Q.** And the “Polarization, background subtracted” value ([2]; compound 6.25e-6 M)?
**A.** Its value is -4.133 and -2.733 and -3.633.

**Q.** What about the “Polarization, background subtracted” value ([2]; compound 1.25e-5 M) of the same compound?
**A.** The value was 1.867 and 3.867 and 0.9667.

**Q.** What about the “Polarization, background subtracted” value ([2]; compound 2.5e-5 M) of the same compound?
**A.** Its value is 13.4667 and 18.8667 and 13.1667.

**Q.** And the “Polarization, background subtracted” value ([2]; compound 5e-5 M)?
**A.** The value was 40.8667 and 54.6667 and 41.6667.

**Q.** What about the “Polarization, background subtracted” value ([2]; compound 0.0001 M) of the same compound?
**A.** The value was 97.2667 and 108.167 and 99.8667.

**Q.** How did the “Polarization in the absence” value ([1]; compound 7.8125e-7 M) turn out when `N=C(N)NCCCC1NC(=O)C(CCC(N)=O)NC(=O)C(CCCNC(=N)N)NC(=O)C2CCCN2Cc2cccc(c2)-c2ccccc2CNC1=O` (stereo not drawn) [CY002028] was run?
**A.** The value was 1.367 and 0.8667 and 0.4667.

**Q.** What about the “Polarization in the absence” value ([1]; compound 1.5625e-6 M) of the same compound?
**A.** The value was 0.5667 and -0.1333 and 0.4667.

**Q.** And the “Polarization in the absence” value ([1]; compound 3.125e-6 M)?
**A.** Its value is 0.3667 (2×) and 0.6667.

**Q.** What about the “Polarization in the absence” value ([1]; compound 6.25e-6 M) of the same compound?
**A.** Its value is 0.2667 and -0.5333 and 0.6667.

**Q.** What about the “Polarization in the absence” value ([1]; compound 1.25e-5 M) of the same compound?
**A.** Its value is -1.933 and 1.467 and 1.267.

**Q.** What about the “Polarization in the absence” value ([1]; compound 2.5e-5 M) of the same compound?
**A.** Its value is 1.367 (2×) and 1.467.

**Q.** What about the “Polarization in the absence” value ([1]; compound 5e-5 M) of the same compound?
**A.** Its value is 3.267 and 3.467 and 4.467.

**Q.** What about the “Polarization in the absence” value ([1]; compound 0.0001 M) of the same compound?
**A.** The value was 7.867 and 8.067 and 8.267.

**Q.** What about the “Polarization, background subtracted” value ([2]; compound 7.8125e-7 M) of the same compound?
**A.** The value was 0.5667 and 1.267 and 0.8667.

**Q.** And the “Polarization, background subtracted” value ([2]; compound 1.5625e-6 M)?
**A.** Its value is 0.6667 and -0.1333 and 0.5667.

**Q.** And the “Polarization, background subtracted” value ([2]; compound 3.125e-6 M)?
**A.** Its value is 1.867 (2×) and 1.167.

**Q.** What about the “Polarization, background subtracted” value ([2]; compound 6.25e-6 M) of the same compound?
**A.** The value was 2.367 and 1.667 and 2.767.

**Q.** And the “Polarization, background subtracted” value ([2]; compound 1.25e-5 M)?
**A.** The value was 6.467 and 4.967 and 7.667.

**Q.** And the “Polarization, background subtracted” value ([2]; compound 2.5e-5 M)?
**A.** Its value is 12.9667 and 10.8667 and 4.867.

**Q.** What about the “Polarization, background subtracted” value ([2]; compound 5e-5 M) of the same compound?
**A.** The value was 26.7667 and 22.8667 and 21.6667.

**Q.** What about the “Polarization, background subtracted” value ([2]; compound 0.0001 M) of the same compound?
**A.** Its value is 66.6667 and 58.4667 and 74.5667.

Reference: PMC9226124, “Macrocycle-stabilization of its interaction with 14-3-3 increases plasma membrane localization and activity of CFTR” (Nature Communications, 2022)
